# Where two headings read alike, the source gives them in different places.
# Assays:
# [1] = system: primary AML blasts; assay: Cell viability (sytox blue, flow cytometry) of primary AML patient samples, LC50; assay type: cell-based, human; settings: 54 primary AML samples; 48 h; RPMI/15% FCS; combination at 1:1
# Experimental: Primary AML patient samples: Bone marrow or peripheral blood samples from patients with AML were collected after informed consent in accordance with guidelines approved by The Alfred Hospital Human research ethics committees. Mononuclear cells were isolated by Ficoll-Paque (GE Healthcare, VIC, Aus) density-gradient centrifugation, followed by red cell depletion in ammonium chloride (NH4Cl) lysis buffer at 37° C. for 10 minutes. Cells were then re-suspended in phosphate-buffered saline containing 2% Fetal Bovine serum (Sigma, NSW, Aus). Mononuclear cells were then suspended in RPMI-1640 (GIBCO VIC, Aus) medium containing penicillin and streptomycin (GIBCO) and heat inactivated fetal bovine serum 15% (Sigma).
# Cell Viability: Freshly purified mononuclear cells from AML patient samples were adjusted to a concentration of 2.5×10^5/ml and 100 μL of cells aliquoted per well into 96 well plates (Sigma). […] For combinations assays, drugs were added at a 1:1 ratio from 1 nM to 10 μM and incubated at 37° C. 5% CO2. Cells were then stained with sytox blue nucleic acid stain (Invitrogen, VIC, Aus) and fluorescence measured by flow cytometric analysis using the LSR-II Fortessa (Becton Dickinson, NSW, Aus). FACSDiva software was used for data collection, and FlowJo software for analysis. Blast cells were gated using forward and side scatter properties. […]
# [2] = system: MV4;11 AML cells; assay: Luciferase MV4;11 AML engraftment model in NSG mice; assay type: in vivo, mouse; settings: MV4;11-luciferase, Compound 1, HCl 100 mg/kg oral daily, Compound 2 25 mg/kg IV twice weekly, 4 weeks
# Experimental: In vivo experimentation AML engraftment: Animal studies were performed under the institutional guidelines approved by the Alfred Medical Research and Education Precinct Animal Ethics Committee, MV4; 11 cells transduced with the luciferase reporter (pLUC2) were intravenously injected at 1×10^5 cells into irradiated (100 Rad) non-obese diabetic/severe combined immunodeficient (NOD/SCID/IL2rγnull) mice as previously described (Jin et al., Cell Stem Cell 2 Jul. 2009, Volume 5, Issue 1, Pages 31-42). Engraftment was measured at day 7 by quantifying the percentage of hCD45+ cells in the PB by flow cytometry and by IVIS imaging of bioluminescent MV4; 11 cells. At day 10, mice received daily oral gavage of Compound 1, HCl (200 μL 100mg/kg—dosage expressed as the free base) dissolved in PEG400 (Sigma), absolute ethanol (Sigma) and distilled H20 40:10:60 or Compound 2 (200 μL 25 mg/kg) twice weekly dissolved in 50% 2-hydroxypropyl)-β-cyclodextrin (Sigma) and 50% 50mM HCl or the drug combination or vehicle, over 4 weeks. Blood counts were determined using a hematology analyzer (BioRad, Gladesville, NSW). […]
# To verify the in vivo activity of this approach, luciferase expressing MV4; 11 AML cells were engrafted into NSG mice and treated with Compound 1 (HCl salt) or Compound 2 alone, or in combination and tumour burden assessed after 14 and 21 days of therapy (FIG. 2B). […]
# [3] = system: AMO1; assay: MTT cell viability assay, myeloma cell line; assay type: cell-based, human
# Experimental: (§1) Cell lines: Human myeloma cell lines (HMCLs) were derived from primary myeloma cells cultured in RPMI 1640 medium supplemented with 5% fetal calf serum from and 3 ng/mL recombinant IL-6 for IL-6 dependent cell lines. HMCLs are representative of phenotypic and genomic heterogeneity and the variability in patient's response to therapy.
# (§2) MTT assay: Cell viability is measured using MTT (3-(4,5-dimethylthiazol-2-yl)-2,5-diphenyltetrazolium bromide) colorimetric survival assay. Cells are incubated with compounds in 96-well plates containing a final volume of 100 μl/well time. (2R)-2-{[(5Sa)-5-{3-chloro-2-methyl-4-[2-(4-methylpiperazin-1-yl)ethoxy]phenyl}-6-(5-fluorofuran-2-yl)thieno[2,3-d]pyrimidin-4-yl]oxy}-3-(2-{[1-(2,2,2-trifluoroethyl)-1H-pyrazol-5-yl]methoxy}phenyl)propanoic acid (Compound 2) is used at 9 different concentrations accordingly to single agent sensitivity. N-(4-hydroxyphenyl)-3-{6-[((3S)-3-(4-morpholinylmethyl)-3,4-dihydro-2(1H)-isoquinolinyl)carbonyl]-1,3-benzodioxol-5-yl}-N-phenyl-5,6,7,8-tetrahydro-1-indolizine carboxamide hydrochloride (Compound 1, HCl) is used at a fixed dose—1 μM. At the end of each treatment, cells are incubated with 1 mg/mL MTT (50 μl MTT solution 2.5 mg/ml for each well) at 37° C. for 3 hours allowing the MTT to be metabolized. Lysis buffer (100 μl Lysis buffer: DMF (2:3)/SDS (1:3)) is added into each well to dissolve formazan cristals and after 18 h of incubation, absorbance in viable cells is measured at 570 nm using a spectrophotometer.
# (§3) The sensitivity of 27 human multiple myeloma cell lines to Compound 1, Compound 2 or to Compound 2 in the presence of 1 μM of Compound 1 was analyzed by using MTT cell viability assay. 50% inhibitory concentrations (IC50, in nM) were determined.
# [4] = system: ANBL6; assay: MTT cell viability assay, myeloma cell line; assay type: cell-based, human
# Experimental: as §1, §2, §3
# [5] = system: BCN; assay: MTT cell viability assay, myeloma cell line; assay type: cell-based, human
# Experimental: as §1, §2, §3
# [6] = system: JIM3; assay: MTT cell viability assay, myeloma cell line; assay type: cell-based, human
# Experimental: as §1, §2, §3
# [7] = system: JJN3; assay: MTT cell viability assay, myeloma cell line; assay type: cell-based, human
# Experimental: as §1, §2, §3
# [8] = system: KMM1; assay: MTT cell viability assay, myeloma cell line; assay type: cell-based, human
# Experimental: as §1, §2, §3
# [9] = system: KMS11; assay: MTT cell viability assay, myeloma cell line; assay type: cell-based, human
# Experimental: as §1, §2, §3
# [10] = system: KMS12BM; assay: MTT cell viability assay, myeloma cell line; assay type: cell-based, human
# Experimental: as §1, §2, §3
# [11] = system: L363; assay: MTT cell viability assay, myeloma cell line; assay type: cell-based, human
# Experimental: as §1, §2, §3
# [12] = system: LP1; assay: MTT cell viability assay, myeloma cell line; assay type: cell-based, human
# Experimental: as §1, §2, §3
# [13] = system: MM1S; assay: MTT cell viability assay, myeloma cell line; assay type: cell-based, human
# Experimental: as §1, §2, §3
# [14] = system: NAN1; assay: MTT cell viability assay, myeloma cell line; assay type: cell-based, human
# Experimental: as §1, §2, §3
# [15] = system: NAN3; assay: MTT cell viability assay, myeloma cell line; assay type: cell-based, human; settings: single agent
# Experimental: as §1, §2, §3
# [16] = system: NAN6; assay: MTT cell viability assay, myeloma cell line; assay type: cell-based, human
# Experimental: as §1, §2, §3
# [17] = system: NAN8; assay: MTT cell viability assay, myeloma cell line; assay type: cell-based, human
# Experimental: as §1, §2, §3
# [18] = system: NAN9; assay: MTT cell viability assay, myeloma cell line; assay type: cell-based, human
# Experimental: as §1, §2, §3
# [19] = system: NCI-H929; assay: MTT cell viability assay, myeloma cell line; assay type: cell-based, human
# Experimental: as §1, §2, §3
# [20] = system: OPM2; assay: MTT cell viability assay, myeloma cell line; assay type: cell-based, human
# Experimental: as §1, §2, §3
# [21] = system: RPMI8226; assay: MTT cell viability assay, myeloma cell line; assay type: cell-based, human
# Experimental: as §1, §2, §3
# [22] = system: SBN; assay: MTT cell viability assay, myeloma cell line; assay type: cell-based, human
# Experimental: as §1, §2, §3
# [23] = system: U266; assay: MTT cell viability assay, myeloma cell line; assay type: cell-based, human
# Experimental: as §1, §2, §3
# [24] = system: XG11; assay: MTT cell viability assay, myeloma cell line; assay type: cell-based, human
# Experimental: as §1, §2, §3
# [25] = system: XG1; assay: MTT cell viability assay, myeloma cell line; assay type: cell-based, human
# Experimental: as §1, §2, §3
# [26] = system: XG2; assay: MTT cell viability assay, myeloma cell line; assay type: cell-based, human
# Experimental: as §1, §2, §3
# [27] = system: XG3; assay: MTT cell viability assay, myeloma cell line; assay type: cell-based, human
# Experimental: as §1, §2, §3
# [28] = system: XG6; assay: MTT cell viability assay, myeloma cell line; assay type: cell-based, human
# Experimental: as §1, §2, §3
# [29] = system: XG7; assay: MTT cell viability assay, myeloma cell line; assay type: cell-based, human
# Experimental: as §1, §2, §3
# [30] = + 1 μM Compound 1, HCl, read-out: IC50 of Compound 2 in the presence of 1 μM of Compound 1, HCl
structure (smiles),measurement,setting,value
"Cc1c(-c2c(-c3ccc(F)o3)sc3ncnc(O[C@H](Cc4ccccc4OCc4ccnn4CC(F)(F)F)C(=O)O)c23)ccc(OCCN2CCN(C)CC2)c1Cl [Compound 2, (2R)-2-{[(5Sa)-5-{3-chloro-2-methyl-4-[2-(4-methylpiperazin-1-yl)ethoxy]phenyl}-6-(5-fluorofuran-2-yl)thieno[2,3-d]pyrimidin-4-yl]oxy}-3-(2-{[1-(2,2,2-trifluoroethyl)-1H-pyrazol-5-yl]methoxy}phenyl)propanoic acid]",proportion of primary AML samples highly sensitive (LC50<10 nM),[1],Approximately 20%
same,"in vivo anti-leukaemic activity (luciferase tumour burden, survival)",[2],reduced luciferase bulk
same,IC50,[3]; [30],0.2 nM
same,IC50,"[3]; single agent, read-out: IC50",0.5 nM
same,IC50,[4]; [30],20.8 nM
same,IC50,"[4]; single agent, read-out: IC50",79.5 nM
same,IC50,[5]; [30],59.3 nM
same,IC50,"[5]; single agent, read-out: IC50",1110 nM
same,IC50,[6]; [30],25.9 nM
same,IC50,"[6]; single agent, read-out: IC50",56.3 nM
same,IC50,[7]; [30],2.4 nM
same,IC50,"[7]; single agent, read-out: IC50",15.6 nM
same,IC50,[8]; [30],8.6 nM
same,IC50,"[8]; single agent, read-out: IC50",57.8 nM
same,IC50,[9]; [30],3.9 nM
same,IC50,"[9]; single agent, read-out: IC50",44.1 nM
same,IC50,[10]; [30],0.03 nM
same,IC50,"[10]; single agent, read-out: IC50",44.1 nM
same,IC50,[11]; [30],3.4 nM
same,IC50,"[11]; single agent, read-out: IC50",7.6 nM
same,IC50,[12]; [30],2.9 nM
same,IC50,"[12]; single agent, read-out: IC50",158 nM
same,IC50,[13]; [30],23 nM
same,IC50,"[13]; single agent, read-out: IC50",138 nM
same,IC50,[14]; [30],1.4 nM
same,IC50,"[14]; single agent, read-out: IC50",5.7 nM
same,IC50,[15],1.5 nM
same,IC50,[16]; [30],1.8 nM
same,IC50,"[16]; single agent, read-out: IC50",7.1 nM
same,IC50,[17]; [30],32.5 nM
same,IC50,"[17]; single agent, read-out: IC50",75.4 nM
same,IC50,[18]; [30],1.1 nM
same,IC50,"[18]; single agent, read-out: IC50",9.7 nM
same,IC50,[19]; [30],1 nM
same,IC50,"[19]; single agent, read-out: IC50",2.3 nM
same,IC50,[20]; [30],1.2 nM
same,IC50,"[20]; single agent, read-out: IC50",9.4 nM
same,IC50,[21]; [30],3 nM
same,IC50,"[21]; single agent, read-out: IC50",27.4 nM
same,IC50,[22]; [30],14.6 nM
same,IC50,"[22]; single agent, read-out: IC50",221 nM
same,IC50,[23]; [30],14.9 nM
same,IC50,"[23]; single agent, read-out: IC50",170 nM
same,IC50,[24]; [30],8.3 nM
same,IC50,"[24]; single agent, read-out: IC50",375 nM
same,IC50,[25]; [30],0.2 nM
same,IC50,"[25]; single agent, read-out: IC50",5.9 nM
same,IC50,[26]; [30],2.7 nM
same,IC50,"[26]; single agent, read-out: IC50",6.4 nM
same,IC50,[27]; [30],1.3 nM
same,IC50,"[27]; single agent, read-out: IC50",6.1 nM
same,IC50,[28]; [30],0.5 nM
same,IC50,"[28]; single agent, read-out: IC50",19.2 nM
same,IC50,[29]; [30],8 nM
same,IC50,"[29]; single agent, read-out: IC50",16.3 nM

# Reference: patent publication US20190240225A1, “COMBINATION OF A BCL-2 INHIBITOR AND A MCL-1 INHIBITOR, USES AND PHARMACEUTICAL COMPOSITIONS THEREOF” (LES LABORATOIRES SERVIER, priority 2016, published 2019)
